Where two headings read alike, the source gives them in different places.
What was measured:
[1] = test system: intracellular ROS; assay: Intracellular ROS assay (DCF-DA, flow cytometry), M109 cells; type: cell-based, mouse; conditions: 50 μM, 10 min, positive control
Protocol: Intracellular ROS generation was assessed using the cell-permeable dye 2′,7′-dichlorofluorescein-diacetate (DCF-DA) (Sigma). DCF-DA readily diffuses into cells and becomes highly fluorescent when oxidised by O2^•−, H2O2, or OH^−.^29 Cellular fluorescence intensity is directly proportional to the level of intracellular ROS.^29 M109 cells (1×10^5 cells/well) were incubated with or without 1 μM Dp44mT for 0-48 h or 50 μM H2O2 (positive control) for 10 min at 37° C. The cells were then incubated with DCF-DA (5 μM) for 20 min at 37° C., washed twice, and detached from the culture plates. The fluorescence of oxidised DCF in cells was measured using flow cytometry.^29)
To test whether induction of h-cytc release from the mitochondrion (FIG. 15A) and the imbalance of Bcl-2/Bax expression (FIG. 15B) was due to the presence of ROS, intracellular ROS were measured by flow cytometry using the DCFH-DA probe which becomes fluorescent when oxidised by O2^•−, H2O2, or OH^−.^29 Incubation of M109 cells with Dp44mT (1 μM) increased the levels of oxidised probe as a function of time. After 2 h, a 25±10% increase in oxidised DCFH-DA fluorescence was found compared to the 0 h time point, and this increased to 486±96% after 48 h (FIG. 15C). For comparison, a 10 min incubation with the positive control, H2O2 (50 μM), increased fluorescence to 1312±46% of the 0 h time point (FIG. 15C)

[2] = test system: SK-N-MC neuroepithelioma cells; assay: 3H-leucine incorporation by SK-N-MC cells; type: cell-based, human; conditions: 20 h incubation then 2 h label; Mean ± SD, 4 experiments
Protocol: (§1) After a 20 h incubation of the SK-N-MC cells with a selection of analogues, ^3H-thymidine, ^3H-leucine, or ^3H-uridine (1 μCi/ml) was added for 2 h at 37° C. The cells were detached from the 96 well plate using 1 mM EDTA in Ca(II)/Mg(II)-free PBS and collected and washed using a cell harvester (Tomtec Harvester 96, Linbrook, Queensland, Australia). Radioactivity was measured on a P-scintillation counter (LKB Wallace, Turku, Finland).

[3] = test system: H69AR lung cancer; assay: MTT cellular proliferation assay, H69AR; type: cell-based; conditions: 0-50 μM, 72 h, 1 experiment
Protocol: (§2) The final concentration of the compounds was 0.39-50 μM. […] […] After this incubation, 0.01 mL of MTT was added to each well and the plates incubated for 2 h at 37° C. The cells were then solubilised by adding 0.1 mL of 10% SDS-50% isobutanol in 0.01 M HCl and the plates then read at 570 nm on a scanning multiwell spectrophotometer (Titertek Multiscan; Beckman Instruments Inc, California). MTT colour formation was directly proportional to the number of viable cells.
(§3) At the end of the incubation period, cell density was determined by the MTT assay (described above).

[4] = test system: iron regulatory proteins (IRPs); assay: IRP-RNA-binding activity, gel-retardation assay, SK-N-MC cells; type: cell-based, human; conditions: DFO 100 μM, FAC 100 μg/ml, other chelators 25 μM, 20 h (FIG. 8)
Protocol: The IRP-RNA-binding activity was then assessed by the gel-retardation assay. Aliquots of cell lysate containing 2 μg of protein were incubated with 0.1 ng (approximately 1×10^5 cpm) of ^32P-labelled riboprobe for 30 min at room temperature. Using this protocol the level of RNA added was saturating. Unprotected probe was degraded by incubation with 1 U of RNAse T1 for 10 min at room temperature. Heparin (5 mg/ml) was then added for another 10 min to exclude non-specific binding. The IRE-protein complexes were analyzed on 6% non-denaturing polyacrylamide gels. In parallel experiments, samples were treated with ferricyanide (FeCN, 5 mM) and 0.5% β-mercaptoethanol (β-ME), prior to addition of the IRE probe. This procedure results in the conversion of IRP1, whether spontaneously active or not, into an active IRE-binding form.^22

[5] = test system: IMR-32 Neuroblastoma; assay: MTT cellular proliferation assay, IMR-32; type: cell-based; conditions: 0-50 μM, 72 h, 1 experiment
Protocol: as §2, §3

[6] = test system: MRC-5 fibroblasts; assay: MTT cellular proliferation assay, MRC-5 fibroblasts; type: cell-based, human
Protocol: as §2
The MRC-5 cell type is a normal human lung fibroblast cell strain that is mortal and senesces after a number of passages in vitro. The SK-N-MC neuroepithelioma cell type is immortal.
(§4) Dp2mT served as a negative control.

[7] = test system: SK-N-MC neuroepithelioma cells; assay: 3H-thymidine incorporation by SK-N-MC cells; type: cell-based, human; conditions: 20 h incubation then 2 h label; Mean ± SD, 4 experiments
Protocol: as §1

[8] = test system: GADD45 and WAF1 mRNA; assay: Northern blot of WAF1 and GADD45 mRNA expression in SK-N-MC cells; type: cell-based, human; conditions: DFO 100 μM, other chelators 25 μM, 20 h at 37° C. (FIG. 7)
Protocol: FIG. 7. […] Northern blotting was performed using standard procedures (see Example 6).
Northern blot analysis was performed by isolating total RNA using the Total RNA Isolation Reagent (Advanced Biotechnologies Ltd, Surrey, United Kingdom). The membranes were hybridised with probes specific for human WAF1, GADD45, and β-actin. The WAF1 probe consisted of a 1 kb fragment from pSXV (ATCC; Cat. No. 79928). The GADD45 probe consisted of a 760 bp fragment from human GADD45 cDNA cloned into pHu145B2 (kindly supplied by Dr. Albert Fornace, National Cancer Institute, NIH, Maryland). The β-actin probe consisted of a 1.4 kb fragment from human β-actin cDNA cloned into pBluescript SK− (ATCC; Cat. No. 37997).

[9] = test system: M109 carcinoma cells; assay: 59Fe uptake from 59Fe-Tf by M109 cells; type: cell-based, mouse; conditions: 1 μM
Protocol: The ability of the compound Dp44mT to inhibit the growth of M109 lung carcinoma cells in mice was assessed. Studies were performed using M109 carcinoma cells in culture to determine the effect of Dp44mT on mobilising ^59Fe from these cells (FIG. 11C) and inhibiting ^59Fe uptake from ^59Fe-Tf (FIG. 11D). As internal controls, cells were incubated with DFO and 311. The effect of compound concentration on increasing ^59Fe mobilisation from M109 cells was examined by labelling cells with ^59Fe-Tf (0.75 μM) for 3 h at 37° C. followed by washing and reincubation with the respective compounds (0.2-25 μM) for 3 h at 37° C. (FIG. 11C). […] In contrast, 311 increased cellular ^59Fe release from 8±1% (control medium) to […] at 5 μM (FIG. 11C). For Dp44mT ^59Fe release plateaued at 2 μM, resulting in the efflux of 48±2% of ^59Fe (FIG. 11C).
At 1 μM, 311 reduced ^59Fe uptake to 40±4% of the control. […] Dp44mT had similar activity to 311 up to a concentration of 5 μM, where it reduced ^59Fe uptake to 30±1% of the control (FIG. 11D).

[10] = test system: SK-Mel-28 melanoma cells; assay: MTT cellular proliferation assay, SK-Mel-28; type: cell-based, human; conditions: Table 3, 72 h, mean ± SD
Protocol: as §2, §4
(§5) Dp2mT served as a negative control as the methyl group at the 2-position hinders Fe-chelation.

[11] = test system: MCF-7 breast cancer cells; assay: MTT cellular proliferation assay, MCF-7; type: cell-based, human; conditions: values given in Example 8; read-out: IC50, anti-proliferative activity in MCF-7 cells
Protocol: as §2, with “The final concentration of the compounds was 0.39-50 μM.” left out
as §4, §5

[12] = test system: NCI H2452 mesothelioma; assay: MTT cellular proliferation assay, NCI H2452; type: cell-based; conditions: 0-50 μM, 72 h, 3 experiments
Protocol: as §2, §3

[13] = test system: DU 145 prostate cancer; assay: MTT cellular proliferation assay, DU 145; type: cell-based; conditions: 0-50 μM, 72 h, 2 experiments
Protocol: as §2, §3

[14] = test system: SK-N-MC neuroepithelioma cells; assay: 3H-uridine incorporation by SK-N-MC cells; type: cell-based, human; conditions: 20 h incubation then 2 h label; Mean ± SD, 3 experiments
Protocol: as §1

[15] = test system: HEP G2 Hepatoma; assay: MTT cellular proliferation assay, HEP G2; type: cell-based; conditions: 0-50 μM, 72 h, 1 experiment
Protocol: as §2, §3

[16] = test system: Ndrg1; assay: Ndrg1 expression in MCF-7 cells (Western blotting); type: cell-based, human; conditions: 25 μM, 24 h, MCF-7 cells (FIG. 16)
Protocol: FIG. 16. […] The expression of Ndrg1 and β-actin protein levels were assessed by Western blotting.
MCF-7 cells were incubated for 24 h with a range of metal ion chelators. […] Dp2mT was used as a negative control, […]

[17] = test system: SK-N-MC neuroepithelioma cells; assay: MTT cellular proliferation assay, SK-N-MC; type: cell-based, human
Protocol: […] […] After this incubation, 0.01 mL of MTT was added to each well and the plates incubated for 2 h at 37° C. The cells were then solubilised by adding 0.1 mL of 10% SDS-50% isobutanol in 0.01 M HCl and the plates then read at 570 nm on a scanning multiwell spectrophotometer (Titertek Multiscan; Beckman Instruments Inc, California). MTT colour formation was directly proportional to the number of viable cells.
The effect of the compounds on the proliferation of SK-N-MC neuroepithelioma cells was examined using the MTT assay (described above).
as §4

[18] = test system: SK-N-MC neuroepithelioma cells; assay: 59Fe mobilization from prelabelled SK-N-MC neuroepithelioma cells; type: cell-based, human
Protocol: The effect of chelators on ^59Fe release from prelabelled cells was studied using standard procedures.^18 Cells were prelabelled with ^59Fe-transferrin (0.75 μM) for 3 h at 37° C. […] The overlying medium was then removed and placed into γ-counting tubes. The cells were removed from the petri dishes in 1 ml of BSS using a plastic spatula and transferred to a separate set of γ-counting tubes.
The ability of the compounds to mobilise ^59Fe from SK-N-MC neuroepithelioma cells was assessed after a 3 h labelling period with ^59Fe-Tf (0.75 μM) at 37° C. […]
DFO and 311 were used as internal standards.

[19] = test system: SK-N-MC neuroepithelioma cells; assay: 59Fe uptake from 59Fe-transferrin by SK-N-MC neuroepithelioma cells; type: cell-based, human; conditions: 0.5-50 μM, 3 h; PCTH internal control (FIG. 5B)
Protocol: The cells were then placed on ice and washed four times with ice-cold Hank's balanced salt solution (BSS) to remove non-specifically bound ^59Fe-Tf. Cells were then incubated with the general protease, pronase (1 mg/ml), for 30 min at 4° C. to remove membrane-bound ^59Fe and Tf.
PCTH was used as an internal control.

[20] = Table 2, MTT assay, 90 h incubation, Mean ± SD, 4 experiments, read-out: IC50 Values of Chelators

## OO [H2O2]
[1]
  fluorescence: 1312±46 % of the 0 h time point

## O=C(NN=Cc1c(O)ccc2ccccc12)c1ccncc1 [compound 311, 2-hydroxy-1-naphthylaldehyde isonicotinoyl hydrazone]
[2]
  3H-Leucine Incorporation: 2 ± 1 % Control
[3]
  IC50: 0.97 µM
[4]
  IRP-RNA binding activity: increase
[5]
  IC50: 0.3 µM
[6]; Table 3, normal cells, 72 h, MTT, read-out: IC50 MRC-5 fibroblasts
  IC50: > 25 µM
[7]
  3H-Thymidine Incorporation: 0.1 ± 0.1 % Control
[8]
  GADD45 and WAF1 mRNA expression: up-regulation
[9]
  59Fe uptake: 40±4 % of the control
[10]
  IC50: 0.9 ± 0.5 µM
[11]
  IC50: 0.6 µM
[12]
  IC50: 0.47 µM
[13]
  IC50: 1.94 µM
[14]
  3H-Uridine Incorporation: 5 ± 2 % Control
[15]
  IC50: 1.18 µM
[16]
  up-regulation of Ndrg1: markedly increased
[17]; [20]
  IC50: 3 ± 2 µM
[17]; Table 3, 0-25 μM, 72 h, MTT, mean ± SD, read-out: IC50 SK-N-MC neuroepithelioma
  IC50: 0.3 µM

## di-2-pyridylketone 2-thiophenecarboxaldehyde hydrazone [PKTH]
[2]
  3H-Leucine Incorporation: 19 ± 8 % Control
[3]
  IC50: 0.78 µM
[18]; 0.5-50 μM, 3 h, PCTH internal control (FIG. 5A)
  59Fe mobilisation as a function of concentration: more effective than PCTH
[18]; chelator 1 μM, 3 h reincubation at 37° C. (FIG. 5A)
  cellular 59Fe released: 26%
[5]
  IC50: 0.3 µM
[6]; Example 4c, FIG. 6, read-out: IC50 values in fibroblasts
  IC50: 16 µM
[7]
  3H-Thymidine Incorporation: 0.04 ± 0.01 % Control
[8]
  GADD45 and WAF1 mRNA expression: pronounced effect
[12]
  IC50: 0.73 µM
[13]
  IC50: 1.43 µM
[14]
  3H-Uridine Incorporation: 5 ± 1 % Control
[19]
  prevention of 59Fe uptake as a function of concentration: higher efficacy than the control PCTH
[17]; [20]
  IC50: 3 ± 1 µM

## ferric ammonium citrate [FAC]
[4]
  IRP-RNA binding activity: decreased
